This note sets out measurements from patent publication US11857550B2, “Benzathine analogs” (University of Pittsburgh—Of the Commonwealth System of …, priority 2012, dated 2024).

The test addresses T1, COX-2 (Mus musculus, UniProt Q05769).
T1 construct: MLE cells were treated with BC-1215 (10 ug/ml) for 24 h before assaying for COX-2 activity (Cayman); endogenous in cells; host or cells: MLE (murine lung epithelial) cells
T1 sequence (Q05769 18-604): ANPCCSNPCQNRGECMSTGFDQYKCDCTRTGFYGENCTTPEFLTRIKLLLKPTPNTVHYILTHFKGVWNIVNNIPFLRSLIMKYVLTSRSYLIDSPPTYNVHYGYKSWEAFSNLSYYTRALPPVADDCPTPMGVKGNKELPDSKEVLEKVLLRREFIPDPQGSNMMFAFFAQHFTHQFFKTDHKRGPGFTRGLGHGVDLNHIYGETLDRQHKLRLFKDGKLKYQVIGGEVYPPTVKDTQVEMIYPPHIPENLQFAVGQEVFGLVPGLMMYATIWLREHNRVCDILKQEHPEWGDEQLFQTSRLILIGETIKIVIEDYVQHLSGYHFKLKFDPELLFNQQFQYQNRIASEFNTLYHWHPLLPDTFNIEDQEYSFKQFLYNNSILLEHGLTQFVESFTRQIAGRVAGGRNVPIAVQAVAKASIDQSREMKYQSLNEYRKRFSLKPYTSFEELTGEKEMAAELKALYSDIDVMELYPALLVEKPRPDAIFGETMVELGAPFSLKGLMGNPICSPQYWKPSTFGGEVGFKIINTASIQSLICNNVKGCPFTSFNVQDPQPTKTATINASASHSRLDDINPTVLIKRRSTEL
The test is described as follows: COX-2 activity in MLE cells. It counts as cell-based, murine. To be noted: 10 ug/ml, 24 h; positive control DuP-697.

The structures appear in SMILES notation.

Take `c1ccc(-c2ccc(CNCCNCc3ccc(-c4ccccn4)cc3)cc2)nc1` [BC-1215]: the COX-2 activity entry is given as “did not alter COX-2 activity”.
